Data set [1] is described as follows: Storage stability of the solid at 40° C. and 75% humidity, related substances analysed by HPLC. It is filed as physicochemical. The note with it: for Amount of related substances increased: related substance content: 40° C., 75% RH. The method, then: The HPLC analysis conditions were as described in (3) Dibekacin and (4) Related substance in the purity test for arbekacin sulfate in the Japanese Pharmacopoeia Sixteen Edition.
Specifically, arbekacin free base was stored at 40° C. and a humidity of 75% for 1 month and 2 months, and the amount of related substances changed was analyzed by HPLC.

A short description of data set [2]: Moisture-absorbing properties on storage at 40° C. at defined humidity. It is filed as physicochemical. The following applies: stored at 40° C.

As for `NCC[C@H](O)C(=O)N[C@@H]1C[C@H](N)[C@@H](O[C@H]2O[C@H](CN)CC[C@H]2N)[C@H](O)[C@H]1O[C@H]1O[C@H](CO)[C@@H](O)[C@H](N)[C@H]1O` [arbekacin free base, Arbekacin], the “Amount of related substances increased: related substance content” value in data set [1] (1-month storage) is on record as 1.7%; in data set [1] (2-month storage), 4.3%. In addition, the “amount of the related substances changed (i.e., the amount increased)” value in data set [1] (stored at 40° C. and a humidity of 75% for 1 month and 2 months) was not below 4%. For the same compound, the moisture-absorbing properties was 1.60 in data set [2] (Humidity 12%); 4.62 in data set [2] (Humidity 22%); 6.25 in data set [2] (Humidity 30%); 7.54 in data set [2] (Humidity 43%); 9.14 in data set [2] (Humidity 53%).
